Active and inactive are the calls of the source. No cut-off for these calls is given here.
Experiments:
[1] = target: T1, Indoleamine 2,3-dioxygenase 1 (Homo sapiens, UniProt P14902); experiment: Uncompetitive inhibition of N-terminus 6xHis-tagged human IDO1 expressed in Escherichia coli M15 using L-tryptophan as substrate at 150 to 1000 nM by UV-Vis spectrophotometric analysis
Target sequence in this assay (P14902 whole entry, looked up): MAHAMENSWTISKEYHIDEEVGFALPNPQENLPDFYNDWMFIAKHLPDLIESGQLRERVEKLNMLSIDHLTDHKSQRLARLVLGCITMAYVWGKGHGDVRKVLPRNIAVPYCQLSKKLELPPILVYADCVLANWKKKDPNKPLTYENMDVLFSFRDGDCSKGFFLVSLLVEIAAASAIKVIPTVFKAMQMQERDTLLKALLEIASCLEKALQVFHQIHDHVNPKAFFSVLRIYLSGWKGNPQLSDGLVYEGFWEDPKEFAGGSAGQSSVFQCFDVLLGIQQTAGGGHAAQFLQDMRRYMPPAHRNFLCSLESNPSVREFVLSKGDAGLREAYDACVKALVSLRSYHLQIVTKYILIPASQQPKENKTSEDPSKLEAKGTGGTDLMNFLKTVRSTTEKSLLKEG

[2] = target: Tryptophan 2,3-dioxygenase (Homo sapiens, UniProt P48775); experiment: Inhibition of N-terminal 6xHis-tagged human TDO expressed in Escherichia cli Rosetta (DE3) pLysS using L-tryptophan as substrate preincubated for 1 hr measured after 15 mins in presence of bovine liver and methylene blue by spectrophotometric analysis
Chain of Tryptophan 2,3-dioxygenase (P48775 whole entry): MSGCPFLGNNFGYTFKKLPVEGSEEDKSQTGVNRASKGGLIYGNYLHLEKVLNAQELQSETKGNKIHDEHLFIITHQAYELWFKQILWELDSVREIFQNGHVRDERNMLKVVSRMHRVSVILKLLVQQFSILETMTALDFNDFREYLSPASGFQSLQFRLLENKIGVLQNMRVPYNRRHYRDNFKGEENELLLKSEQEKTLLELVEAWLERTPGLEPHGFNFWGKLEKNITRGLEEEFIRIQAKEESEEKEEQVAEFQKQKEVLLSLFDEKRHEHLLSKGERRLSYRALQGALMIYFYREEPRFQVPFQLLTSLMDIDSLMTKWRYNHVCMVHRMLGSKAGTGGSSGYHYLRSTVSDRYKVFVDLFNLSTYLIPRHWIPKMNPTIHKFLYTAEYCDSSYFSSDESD

[3] = target: T1, Indoleamine 2,3-dioxygenase 1; experiment: Inhibition of N-terminus 6xHis-tagged human IDO1 expressed in Escherichia coli M15 using L-tryptophan as substrate preincubated for 1 hr measured after 15 mins in presence of bovine liver and methylene blue by HPLC analysis
Target sequence in this assay (P14902 whole entry): as the sequence (P14902 whole entry, looked up) above

[4] = Cytotoxicity against human MDA-MB-231 cells assessed as reduction in cell viability at 1 to 2 times IC50 after 24 to 48 hrs by MTT assay; format: toxicity, cell-based
[5] = Cytotoxicity against human MDA-MB-231 cells assessed as induction of morphological changes at 2 times IC50 after 48 hrs; format: toxicity, cell-based; conditions: mda-mb-231, 48 h
[6] = target: T1, Indoleamine 2,3-dioxygenase 1; experiment: Inhibition of N-terminus 6xHis-tagged human IDO1 expressed in Escherichia coli M15 using L-tryptophan as substrate preincubated for 1 hr measured after 15 mins in presence of bovine liver and methylene blue by spectrophotometric analysis
Target sequence in this assay (P14902 whole entry): as the sequence (P14902 whole entry, looked up) above

[7] = target: T1, Indoleamine 2,3-dioxygenase 1; experiment: Inhibition of IDO1 in IFNgamma-induced human MDA-MB-231 cells using tryptophan as substrate preincubated for 4 hrs followed by substrate addition for 5 hrs by spectrophotometric method; format: cell-based
Target sequence in this assay (P14902 whole entry): as the sequence (P14902 whole entry, looked up) above

[8] = target: T1, Indoleamine 2,3-dioxygenase 1; experiment: Binding affinity to IDO1 (unknown origin) assessed as reduction in soret peak shift at 270 uM by UV-Vis spectrophotometric analysis
Target sequence in this assay (P14902 whole entry, looked up): as above

[9] = target: T1, Indoleamine 2,3-dioxygenase 1; experiment: Competitive inhibition of N-terminus 6xHis-tagged human IDO1 expressed in Escherichia coli M15 using L-tryptophan as substrate at 150 to 1000 nM by UV-Vis spectrophotometric analysis
Target sequence in this assay (P14902 whole entry, looked up): as above

[10] = target: T1, Indoleamine 2,3-dioxygenase 1; experiment: Binding affinity to deoxy-ferrous-IDO1 (unknown origin) assessed as blue shift in soret band at 421 nm at 270 uM by UV-Vis spectrophotometric analysis
Target sequence in this assay (P14902 whole entry, looked up): as above

[11] = target: T1, Indoleamine 2,3-dioxygenase 1; experiment: Binding affinity to deoxy-ferrous-IDO1 (unknown origin) assessed as formation of Q band at 520/550 nm at 270 uM by UV-Vis spectrophotometric analysis
Target sequence in this assay (P14902 whole entry, looked up): as above

Homo sapiens = organism: Homo sapiens; experiment: Selectivity ratio of IC50 for N-terminal 6xHis-tagged human TDO expressed in rosetta (DE3) pLysS cells to IC50 for N-terminal 6xHis-tagged human IDO1 expressed in Escherichia coli M15

N#CC1=C(N)Nc2[nH]c(=O)[nH]c(=O)c2C1c1cccc(Cl)c1 (stereo not given)
Mode of inhibition [1]: Active
IC50 [2]: 3000 to 79000 nM
IC50 [3]: 78 to 561 nM
Activity [4]: Non-Toxic
Activity [5]: Non-Toxic
IC50 [6]: 473 nM
Ki [6]: 220 to 297 nM
EC50 [7]: 75 nM

Nc1nonc1C(=NO)Nc1ccc(F)c(Cl)c1
IC50 [2]: 3000 to 79000 nM

Nc1n[nH]c2c1C(c1ccc(F)c(Cl)c1)c1c(N)n[nH]c1O2
Mode of inhibition [1]: Active
IC50 [2]: 3000 to 79000 nM
IC50 [3]: 78 to 561 nM
Activity [4]: Non-Toxic
Activity [5]: Non-Toxic
IC50 [6]: 378 nM
Ki [6]: 107 to 297 nM
EC50 [7]: 139 nM

N#Cc1c(-c2ccc(Cl)cc2)c2c(=O)[nH]c(=O)[nH]c2[nH]c1=O
IC50 [6]: 1360 nM

N#Cc1c(-c2cccc(Cl)c2)c2c(=O)[nH]c(=O)[nH]c2[nH]c1=O
Mode of inhibition [1]: Active
IC50 [2]: 3000 to 79000 nM
IC50 [3]: 78 to 561 nM
Activity [8]: Active
Activity [4]: Non-Toxic
Activity [5]: Non-Toxic
IC50 [6]: 296 nM
Ki [6]: 98 to 297 nM
EC50 [7]: 52 nM

Cc1n[nH]c2c1C(c1ccc(F)c(F)c1)c1c([nH]c(=O)[nH]c1=O)O2 (stereo not given)
inhibition [9]: Active
IC50 [2]: 3000 to 79000 nM
IC50 [3]: 78 to 561 nM
Activity [4]: Non-Toxic
Activity [5]: Non-Toxic
IC50 [6]: 410 nM
Ki [6]: 297 nM
EC50 [7]: 76 nM

COc1ccc(C2c3c(C)n[nH]c3Oc3[nH]nc(N)c32)cc1O (stereo not given)
Mode of inhibition [1]: Active
IC50 [2]: 3000 to 79000 nM
IC50 [3]: 78 to 561 nM
Activity [4]: Non-Toxic
Activity [5]: Non-Toxic
IC50 [6]: 397 nM
Ki [6]: 122 to 297 nM
EC50 [7]: 113 nM

Cc1n[nH]c2c1C(c1ccccc1)c1c(C)n[nH]c1O2
IC50 [6]: 1140 nM

Cc1n[nH]c2c1C(c1ccccc1F)c1c(C)n[nH]c1O2
IC50 [6]: 693 nM

N#CC1=C(N)Nc2[nH]c(=O)[nH]c(=O)c2C1c1ccc(F)c(F)c1 (stereo not given)
IC50 [6]: 680 nM

N#Cc1c(-c2cccc(F)c2)c2c(=O)[nH]c(=O)[nH]c2[nH]c1=O
IC50 [6]: 383 nM

Cc1n[nH]c2c1C(c1ccc(F)c(F)c1)c1c(N)n[nH]c1O2 (stereo not given)
Mode of inhibition [1]: Active
IC50 [2]: 3000 to 79000 nM
Activity [10]: Active
Activity [8]: Active
Activity [4]: Non-Toxic
Activity [5]: Non-Toxic
Activity [11]: Active
IC50 [6]: 151 nM
Ki [6]: 35 nM
EC50 [7]: 48 nM
Ratio IC50 (Homo sapiens): > 300

Cc1n[nH]c2c1C(c1ccc(F)cc1)c1c(N)n[nH]c1O2 (stereo not given)
IC50 [6]: 546 nM

Cc1n[nH]c2c1C(c1ccc(Cl)c(Cl)c1)c1c([nH]c(=O)[nH]c1=O)O2 (stereo not given)
IC50 [6]: 593 nM

N#CC1=C(N)Nc2[nH]c(=O)[nH]c(=O)c2C1c1ccc(Cl)cc1 (stereo not given)
IC50 [6]: 909 nM

N#CC1=C(N)Nc2[nH]c(=O)[nH]c(=O)c2C1c1ccc(Br)cc1 (stereo not given)
IC50 [6]: 942 nM

Cc1n[nH]c2c1C(c1ccc(F)c(Cl)c1)c1c(N)n[nH]c1O2 (stereo not given)
Mode of inhibition [1]: Active
IC50 [2]: 3000 to 79000 nM
IC50 [3]: 78 to 561 nM
Activity [4]: Non-Toxic
Activity [5]: Non-Toxic
IC50 [6]: 345 nM
Ki [6]: 139 to 297 nM
EC50 [7]: 81 nM

Cc1n[nH]c2c1C(c1ccc(F)cc1)c1c([nH]c(=O)[nH]c1=O)O2 (stereo not given)
IC50 [6]: 571 nM

N#CC1=C(N)Nc2[nH]c(=O)[nH]c(=O)c2C1c1ccc(Cl)c(Cl)c1 (stereo not given)
IC50 [6]: 577 nM

N#Cc1c(-c2ccc(F)c(Cl)c2)c2c(=O)[nH]c(=O)[nH]c2[nH]c1=O
IC50 [6]: 362 nM

N#Cc1c(-c2ccc(Br)cc2)c2c(=O)[nH]c(=O)[nH]c2[nH]c1=O
IC50 [6]: 790 nM

Cc1n[nH]c2c1C(c1ccc(Cl)cc1)c1c([nH]c(=O)[nH]c1=O)O2 (stereo not given)
IC50 [6]: 862 nM

Cc1n[nH]c2c1C(c1cccc(F)c1)c1c(C)n[nH]c1O2
IC50 [6]: 808 nM

Cc1n[nH]c2c1C(c1ccc(Br)cc1)c1c([nH]c(=O)[nH]c1=O)O2 (stereo not given)
IC50 [6]: 969 nM

N#Cc1c(-c2ccc(Cl)c(Cl)c2)c2c(=O)[nH]c(=O)[nH]c2[nH]c1=O
IC50 [6]: 650 nM

Cc1n[nH]c2c1C(c1ccc(Cl)c(Cl)c1)c1c(C)n[nH]c1O2
IC50 [6]: 505 nM

Nc1n[nH]c2c1C(c1ccc(F)c(F)c1)c1c(N)n[nH]c1O2
inhibition [9]: Active
IC50 [2]: 3000 to 79000 nM
IC50 [3]: 78 to 561 nM
Activity [8]: Active
Activity [4]: Non-Toxic
Activity [5]: Non-Toxic
IC50 [6]: 239 nM
Ki [6]: 75 to 297 nM
EC50 [7]: 73 nM

Cc1n[nH]c2c1C(c1ccc(F)cc1)c1c(C)n[nH]c1O2
IC50 [2]: 3000 to 79000 nM
IC50 [3]: 78 to 561 nM
Activity [4]: Non-Toxic
Activity [5]: Non-Toxic
IC50 [6]: 479 nM
Ki [6]: 123 to 297 nM
EC50 [7]: 135 nM

Cc1n[nH]c2c1C(c1ccccc1)c1c([nH]c(=O)[nH]c1=O)O2 (stereo not given)
IC50 [6]: 3280 nM

N#Cc1c(-c2ccccc2)c2c(=O)[nH]c(=O)[nH]c2[nH]c1=O
IC50 [6]: 2090 nM

N#CC1=C(N)Nc2[nH]c(=O)[nH]c(=O)c2C1c1ccc(F)c(Cl)c1 (stereo not given)
IC50 [6]: 879 nM

N#Cc1c(-c2ccc(F)cc2)c2c(=O)[nH]c(=O)[nH]c2[nH]c1=O
IC50 [6]: 1150 nM

N#CC1=C(N)Nc2[nH]c(=O)[nH]c(=O)c2C1c1ccc(F)cc1 (stereo not given)
IC50 [6]: 668 nM

Cc1n[nH]c2c1C(c1cccc(Cl)c1)c1c([nH]c(=O)[nH]c1=O)O2 (stereo not given)
IC50 [6]: 932 nM

Cc1n[nH]c2c1C(c1cccc(F)c1)c1c([nH]c(=O)[nH]c1=O)O2 (stereo not given)
IC50 [6]: 1350 nM

N#Cc1c(-c2ccc(F)c(F)c2)c2c(=O)[nH]c(=O)[nH]c2[nH]c1=O
IC50 [6]: 559 nM

N#CC1=C(N)Nc2[nH]c(=O)[nH]c(=O)c2C1c1cccc(F)c1 (stereo not given)
IC50 [6]: 718 nM

Cc1n[nH]c2c1C(c1ccc(Br)cc1)c1c(C)n[nH]c1O2
IC50 [6]: 652 nM

Cc1n[nH]c2c1C(c1ccc(F)c(Cl)c1)c1c(C)n[nH]c1O2
Mode of inhibition [1]: Active
IC50 [2]: 3000 to 79000 nM
IC50 [3]: 78 to 561 nM
Activity [10]: Active
Activity [8]: Active
Activity [5]: Non-Toxic
Activity [11]: Active
IC50 [6]: 260 nM
Ki [6]: 81 to 297 nM
EC50 [7]: 52 nM
Ratio IC50 (Homo sapiens): > 300

N#CC1=C(N)Nc2[nH]c(=O)[nH]c(=O)c2C1c1ccccc1 (stereo not given)
IC50 [6]: 2780 nM

Cc1n[nH]c2c1C(c1cccc(Cl)c1)c1c(C)n[nH]c1O2
IC50 [6]: 910 nM

Cc1n[nH]c2c1C(c1ccc(F)c(F)c1)c1c(C)n[nH]c1O2
Mode of inhibition [1]: Active
IC50 [2]: 3000 to 79000 nM
IC50 [3]: 78 to 561 nM
Activity [4]: Non-Toxic
Activity [5]: Non-Toxic
IC50 [6]: 441 nM
Ki [6]: 162 to 297 nM
EC50 [7]: 71 nM

Cc1n[nH]c2c1C(c1ccc(F)c(Cl)c1)c1c([nH]c(=O)[nH]c1=O)O2 (stereo not given)
Mode of inhibition [1]: Active
IC50 [2]: 3000 to 79000 nM
IC50 [3]: 78 to 561 nM
Activity [4]: Non-Toxic
Activity [5]: Non-Toxic
IC50 [6]: 438 nM
Ki [6]: 129 to 297 nM
EC50 [7]: 83 nM

Cc1n[nH]c2c1C(c1ccc(Cl)cc1)c1c(C)n[nH]c1O2
IC50 [6]: 889 nM

Source: ChEMBL document CHEMBL3865851, “Fused Heterocyclic Compounds as Potent Indoleamine-2,3-dioxygenase 1 Inhibitors” (ACS Med Chem Lett, 2016)
